In patent US20240373851A1, “PEST CONTROL COMPOSITION AND PEST CONTROL METHOD” (SUMITOMO CHEMICAL COMPANY, LIMITED, priority 2021, published 2024):

How the values were obtained:
Assay type in all cases: in vivo
[1] = system: German cockroaches (Blattella germanica); assay: Test Example 11: control test against German cockroaches, spray in chamber; settings: adult German cockroaches; 1.5 mL sprayed; concentration [%]: isocycloseram 0.01, imiprothrin 0.01, permethrin 0.05, alone or mixed; 120 minutes after spraying
Procedure: (§1) Next, the usefulness of the inventive composition for controlling pests will be indicated by Test Examples. In general, the control effect to be expected when treated with a mixture obtained by mixing given two or three types of active ingredient compounds is determined by the Colby's calculation equation represented by the following [Equation 1] and [Equation 2].
(§2) [formula] • P: moribund and mortal rates (%) when treated with an active ingredient compound X in the concentration of m [ppm] • Q: moribund and mortal rates (%) when treated with an active ingredient compound Y in the concentration of n [ppm] • EA: moribund and mortal rates (%) when treated with an active ingredient compound X in the concentration of m [ppm] and an active ingredient compound Y in the concentration of n [ppm] (hereinafter referred to as expected value A) […]
(§3) Regarding the synergistic effect of three types of the active ingredient compounds, in case where the moribund and mortal rates (%) when actually treated with a mixture obtained by mixing three types of the active ingredient compounds exceed the expected value A calculated by using the moribund and mortal rates (%) when actually treated with a mixture obtained by mixing two types of the active ingredient compounds among three types thereof, and the moribund and mortal rates (%) calculated when actually treated the remaining one type of the active ingredient compound, or the expected value B (%) calculated from the moribund and mortal rates (%) when actually treated with each of three types of the active ingredient compounds alone, it was determined that the synergistic effect exists. […]

[2] = system: German cockroaches (Blattella germanica); assay: Test Example 6: control test against German cockroaches, spray in chamber; settings: adult German cockroaches; 1.5 mL sprayed; concentration [%]: isocycloseram 0.05, imiprothrin 0.01, lambda-cyhalothrin 0.0025, alone or mixed; 60 minutes after spraying
Procedure: as §1, §2, §3

[3] = system: German cockroaches (Blattella germanica); assay: Test Example 7: control test against German cockroaches, spray in chamber; settings: adult German cockroaches; 1.5 mL sprayed; concentration [%]: isocycloseram 0.05, imiprothrin 0.01, cypermethrin 0.01, alone or mixed; 120 minutes after spraying
Procedure: as §1, §2, §3

[4] = system: German cockroaches (Blattella germanica); assay: Test Example 10: control test against German cockroaches, spray in chamber; settings: adult German cockroaches; 1.5 mL sprayed; concentration [%]: nicofluprole 0.01, imiprothrin 0.01, permethrin 0.05, alone or mixed; 60 minutes after spraying
Procedure: as §1, §2, §3

[5] = system: German cockroaches (Blattella germanica); assay: Test Example 9: control test against German cockroaches, spray in chamber; settings: adult German cockroaches; 1.5 mL sprayed; concentration [%]: broflanilide 0.02, imiprothrin 0.01, permethrin 0.05, alone or mixed; 420 minutes after spraying
Source text: (§4) Next, the usefulness of the inventive composition for controlling pests will be indicated by Test Examples.
(§5) (hereinafter referred to as expected value A)
(§6) (hereinafter referred to as expected value B)
(§7) In a plastic cup (diameter: 12.4 cm, height: 10.2 cm) lined with a filter paper, ten adult German cockroaches (Blattella germanica) (five males and five females each) were released, and the plastic cup was placed in the center of the bottom of a box-shaped chamber (46 cm×46 cm×70 cm in height). From the height of 60 cm, 1.5 mL of each of formulations prepared by dissolving a single agent of any one of broflanilide, imiprothrin and permethrin, or a mixed agent of two or more thereof in a mixture of isopropyl alcohol and Isopar M at a mixing ratio of 1:9 was sprayed under a spray pressure of 0.041 MPa. After a lapse of 420 minutes from spraying, the number of dead and moribund individuals was examined, and moribund and mortal rates (%) were determined by the above equation 3. The test was performed through two replicates. Dead individuals are completely immobile individuals, and moribund individuals are individuals who cannot get up when turned on their backs.

[6] = system: German cockroaches (Blattella germanica); assay: Test Example 2: control test against German cockroaches, spray in chamber; settings: adult German cockroaches; 1.5 mL sprayed; concentration [%]: nicofluprole 0.01, imiprothrin 0.01, cypermethrin 0.01, alone or mixed; 120 minutes after spraying
Procedure: as §1, §2, §3

[7] = system: German cockroaches (Blattella germanica); assay: Test Example 5: control test against German cockroaches, spray in chamber; settings: adult German cockroaches; 1.5 mL sprayed; concentration [%]: nicofluprole 0.01, imiprothrin 0.01, cyfluthrin 0.0002, alone or mixed; 45 minutes after spraying
Source text: as §4, §5, §6
as §7, with “each) […]” for “each)”, “nicofluprole,” for “broflanilide,”, “cyfluthrin,” for “permethrin,”, “45” for “420”

[8] = system: German cockroaches (Blattella germanica); assay: Test Example 4: control test against German cockroaches, spray in chamber; settings: adult German cockroaches; 1.5 mL sprayed; concentration [%]: nicofluprole 0.01, imiprothrin 0.01, deltamethrin 0.0002, alone or mixed; 45 minutes after spraying
Procedure: as §1, §2, §3

[9] = system: German cockroaches (Blattella germanica); assay: Test Example 8: control test against German cockroaches, spray in chamber; settings: adult German cockroaches; 1.5 mL sprayed; concentration [%]: nicofluprole 0.01, imiprothrin 0.01, phenothrin 0.1, alone or mixed; 45 minutes after spraying
Procedure: as §1, §2, §3

Question: What does the source list for `CCN1OCC(NC(=O)c2ccc(C3=NOC(c4cc(Cl)c(F)c(Cl)c4)(C(F)(F)F)C3)cc2C)C1=O` (centres unmarked) [Isocycloseram, isocycloseram]?
Answer: Moribund and mortal rates [%] after 120 minutes [1]: 5%; Moribund and mortal rates [%] after 60 minutes [2]: 5%; Moribund and mortal rates [%] after 120 minutes [3]: 10%

Question: With `CC1(C)C(C=C(Cl)Cl)C1C(=O)OCc1cccc(Oc2ccccc2)c1` (centres unmarked) [Permethrin, permethrin] as the molecule, how does the “Moribund and mortal rates [%] after 60 minutes” value [4] read?
Answer: Its value is 5%.

Question: And the “Moribund and mortal rates [%] after 120 minutes” value [1]?
Answer: Its value is 5%.

Question: And the “Moribund and mortal rates [%] after 420 minutes” value [5]?
Answer: Its value is 5%.

Question: How did the “Moribund and mortal rates [%] after 60 minutes” value [4] turn out when `CN(C(=O)c1cc(-c2cnn(-c3c(Cl)cc(C(F)(C(F)(F)F)C(F)(F)F)cc3Cl)c2)cnc1Cl)C1CC1` [Nicofluprole, nicofluprole] was run?
Answer: The value was 0%.

Question: And the “Moribund and mortal rates [%] after 120 minutes” value [6]?
Answer: Its value is 0%.

Question: And the “Moribund and mortal rates [%] after 45 minutes” value [7]?
Answer: The value was 0%.

Question: And the “Moribund and mortal rates [%] after 45 minutes” value [8]?
Answer: The value was 0%.

Question: What about the “Moribund and mortal rates [%] after 45 minutes” value [9] of the same molecule?
Answer: The value was 0%.
